Measurements from patent US10450327B2, “Epidithiodioxopiperazine compound or its derivatives, and the use thereof” (priority 2011, dated 2019).

Assays:
NADPH oxidase (NOX) = assay: NADPH oxidase activity assay (whole cell superoxide production); format: cell-based, human; conditions: HASMCs with PDGF-B and HAECs with VEGF-A; until concentrations increased up to 500 nM
Experimental: Whole cell superoxide production was measured using an enhanced luminescence system (Diogenes, National Diagnostics). For the assay, the serum-starved cells were pre-incubated with a 100 μl Diogene reagent at 37° C. for 5 minutes. After being stimulated by the indicated growth factor, chemiluminescence was detected every second for 10 minutes with a TD-20/20 Luminometer (Turner Biosystems).
When HASMCs and HAECs were stimulated with PDGF-B and VEGF-A, respectively, the NOX activity increased approximately twofold. […] Thus, it was seen that these ETP compounds function as hydrogen peroxide reductase capable of replacing PrxII in both vascular cells, but the mechanism was not the inhibition of hydrogen peroxide producer NOX.

VEGFR2 and ERK = assay: VEGF-induced signaling, immunoblot, PrxII knocked down HAECs; format: cell-based, human; conditions: 2 hours pretreatment, VEGF 10 minutes
Experimental: The cells were rinsed with an ice-cold phosphate buffered saline (PBS) solution and then lysed in an extraction buffer solution containing 20 mM Hepes (pH 7.0), 1% Triton X-100, 150 mM NaCl, 10% glycerol, 1 mM EDTA, 2 mM EGTA, 1 mM DTT, 5 mM Na3VO4, 5 mM NaF, 1 mM AEBSF, aprotinin (5 μg/ml), and leupeptin (5 μg/ml). After being centrifuged at 12,000×g, the purified cell extracts were used for immunoblotting. In order to adjust the loading, the membranes were stripped by shaking them for 30 minutes at 60° C. in 67 mM Tris (pH 6.7), 2% SDS, and 100 mM 2-mercaptoethanol solution, and reprobed with an appropriate pan antibody.
In addition, the regulatory effects of GT on the PDGFRβ- and VEGFR2-mediated signaling pathway were examined. The GT treatment in HASMCs was quite different from PDGF-induced tyrosine phosphorylation that was enhanced by the PrxII knockdown (FIG. 12a). […] Conversely, the GT treatment in HAECs restored the VEGF-dependent activation of VEGFR2 and ERK that had been diminished by the PrxII knockdown (FIG. 12b). The effects of GT in vascular cell fuction were further validated.
Lastly, the effects of GT, a representative ETP compound, on vascular cells were compared with the effects of other compounds known as anti-oxidant compounds such as N-acetylcysteine or butylated hydroxyanisole, and the results are shown in FIG. 33. Immunoblotting was performed by pretreating HAECs in which PrxII was knocked down by injecting siRNA with each compound at the concentrations indicated in the graphs for two hours, and then treating with VEGF for 10 minutes. […] These comparative experiments led the inventors of the present invention to conclude that the distinguished […] function of the ETP compounds is clearly due to the PrxII-analogous activity, and additionally to the special chemical property of the dithioketopiperazine ring.

[1] = system: balloon injured carotid arteries; assay: Vascular permeability test (Evans blue inflow); conditions: rat, in vivo
Experimental: Mice were injected intravenously with 100 μl of 5% Evans blue for 30 minutes and then perfused with PBS for 5 minutes. The common carotid arteries were removed from both uninjured collateral and injured ipsilateral ones. The result was dissected, opened longitudinally, and examined on a phase contrast microscope with a magnification of 20×. For quantification, the Evans blue inflowed into the blood vessel was extracted by being placed in formamide at 55° C. overnight and centrifuged for 10 minutes at 12,000 rpm. The supernatants were collected and the absorbance was measured at 620 nm. The background value of the Evans blue dye was measured at 740 nm and substracted from the values in carotid arteries. For VEGFR2 inhibition, SU5416 (20 mg/kg) was injected intraperitoneally for 3 times (Days −1, 1, and 3) before and after the balloon injury. Control injection was made of 200 μl PBS including a vehicle (5% DMSO).
The permeability of the repaired endothelium was examined by Evans blue inflow.

[2] = system: yeast thioredoxin (Trx) / yeast thioredoxin reductase (TR) system; assay: Peroxidase activity assay (hydrogen peroxide reduction), Trx/TR system; format: biochemical; conditions: 25 μM ETP compound, 30° C., NADPH oxidation at 340 nm
Experimental: The peroxidase activity assay for the epidithiodioxopiperazine derivatives according to the present invention (hereinafter, referred to as ETP compounds) was performed according to known methods [Korean Patent No. 10-0953326]. A standard peroxidase reaction for spectrophotometric assay was carried out using a 200 μl reaction mixture of 1 mM EDTA-containing 50 mM Hepes-NaOH buffer solution (pH 7.0) including 250 μM NADPH, 3 μM yeast thioredoxin (Trx), 1.5 μM yeast thioredoxin reductase (TR), 25 μM ETP compound and […] of hydrogen peroxide. For the comparison with a glutathione (GSH)-dependent peroxidase reaction, GSH (1 mM) and yeast glutathione reductase (GSH reductase; GR) (1 Unit) were added instead of yeast Trx and TR. Each reaction was initiated by adding hydrogen peroxide, and the NADPH oxidation was monitored for 12 minutes at 30° C. according to absorbance decrease at 340 nm using an Agilent UV8453 spectrophotometer (Hewlett Packard, USA). The initial reaction rate was calculated using the linear portion of the curve and expressed as the amount of NADPH oxidized per minute.
The chemical feature of the epidithiodioxopiperazine compound of the present invention or its derivatives is the intramolecular disulfide bridge present in the epidithiodioxopiperazine ring moiety. Cellular peroxidase reduces hydrogen peroxide utilizing the electrons derived from NADPH via two electron-transfer routes, that is, Trx/TR or GSH/GR, therefore, spectrophotometric assay was performed for the hydrogen peroxide-reducing activity in the presence of each system, and the results are shown in FIGS. 1 to 5.

[3] = system: left carotid artery of a PrxII−/− mouse; assay: Wire-injured carotid artery of PrxII−/− mouse; format: in vivo; conditions: filter paper strip soaked in GT solution, 30 minutes; 10th day after injury
Experimental: In addition, in order to identify the effects of GT on vascular thickening in a PrxII−/− mouse, left carotid artery of a PrxII−/− mouse was damaged using a flexible wire. After the injury, a Whatman No. 1 filter paper strip was soaked in a control vehicle or a GT solution, and the paper was attached to the surface of vascular epithelia for 30 minutes for the solution to permeate into the tissue. The mouse was recovered at the 10th day after the injury. As a result, the ratio of intima versus media measured from the HE-stained carotid artery sample was presented as mean+− standard error (n=8 per group, *p<0.01).

SMILES: CN1C(=O)[C@]23CC4=CC=C[C@H](O)[C@H]4N2C(=O)[C@@]1(CO)SS3 [gliotoxin]
- NOX activity (NADPH oxidase (NOX)): did not inhibit
- VEGF-dependent activation of VEGFR2 and ERK (VEGFR2 and ERK): restored
- Evans blue inflow compared to DMSO-treated injured carotid arteries [1]: approximately two-third reduction
- hydrogen peroxide-reducing activity in the presence of a Trx/TR system [2]: 3.72 ± 0.53 nmol/min
- vascular thickening (ratio of intima versus media) [3]: markedly reduced
